Measured values published in ChEMBL document CHEMBL1201862, “PubChem BioAssay data set” (2004).
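These data come from cells grown in 96-well plates and exposed to compound for 48 hours at five concentrations. GI50 = concentration required for 50% inhibition of growth.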 The source made the active and inactive calls. Cut-off read from the data, not from the text of the source: active = GI50 up to about 1.1 µM and inactive = higher.

Tests used:
Experiment in all cases: DTP human tumour cell line panel, 48 h
HOP-92 = tested on: HOP-92
SK-MEL-28 = tested on: SK-MEL-28
SF-268 = tested on: SF-268
CCRF-CEM = tested on: CCRF-CEM
UO-31 = tested on: UO-31
NCI-H226 = tested on: NCI-H226
RPMI-8226 = tested on: RPMI-8226
NCI-H460 = tested on: NCI-H460
M19-MEL = tested on: M19-MEL
CAKI-1 = tested on: CAKI-1
HCT-15 = tested on: HCT-15
SK-MEL-2 = tested on: SK-MEL-2
A549 = tested on: A549
SW-620 = tested on: SW-620
DMS-114 = tested on: DMS-114
K562 = tested on: K562
UACC-62 = tested on: UACC-62
RXF 631 = tested on: RXF 631
TK-10 = tested on: TK-10
HOP-62 = tested on: HOP-62
KM12 = tested on: KM12
SNB-19 = tested on: SNB-19
Malme-3M = tested on: Malme-3M
HCT-116 = tested on: HCT-116
SF-295 = tested on: SF-295
SNB-75 = tested on: SNB-75
HT-29 = tested on: HT-29
MOLT-4 = tested on: MOLT-4
XF498 = tested on: XF498
OVCAR-4 = tested on: OVCAR-4
ACHN = tested on: ACHN
LOX IMVI = tested on: LOX IMVI
OVCAR-5 = tested on: OVCAR-5
RXF 393 = tested on: RXF 393
SR = tested on: SR
SNB-78 = tested on: SNB-78
DLD-1 = tested on: DLD-1
COLO 205 = tested on: COLO 205
UACC-257 = tested on: UACC-257
HOP-18 = tested on: HOP-18
U-251 = tested on: U-251
786-0 = tested on: 786-0
HL-60 = tested on: HL-60
SK-OV-3 = tested on: SK-OV-3
KM-20L2 = tested on: KM-20L2
SF-539 = tested on: SF-539
IGROV-1 = tested on: IGROV-1
LXFL 529 = tested on: LXFL 529
OVCAR-8 = tested on: OVCAR-8
SK-MEL-5 = tested on: SK-MEL-5
SN12C = tested on: SN12C
EKVX = tested on: EKVX
M14 = tested on: M14
OVCAR-3 = tested on: OVCAR-3
DMS-273 = tested on: DMS-273
HCC 2998 = tested on: HCC 2998
NCI-H23 = tested on: NCI-H23
NCI-H522 = tested on: NCI-H522
A498 = tested on: A498
NCI/ADR-RES = tested on: NCI/ADR-RES
MCF7 = tested on: MCF7

Measured: GI50

FC(F)(F)C1(Br)C(c2ccccc2)=C1c1ccccc1
12.3 µM: HCT-15
inactive: HOP-92 16.7 µM | SK-MEL-28 18.9 µM | SF-268 19.3 µM | CCRF-CEM 4.43 µM | UO-31 18 µM | NCI-H226 17.7 µM | RPMI-8226 19.3 µM | NCI-H460 24.7 µM | M19-MEL 15.6 µM | CAKI-1 23.8 µM | SK-MEL-2 15.9 µM | A549 17.7 µM | SW-620 16.5 µM | DMS-114 15.2 µM | K562 7.14 µM | UACC-62 15.8 µM | RXF 631 22.6 µM | TK-10 22.9 µM | HOP-62 18.5 µM | KM12 15.8 µM | SNB-19 22.3 µM | Malme-3M 15.8 µM | HCT-116 6.7 µM | SF-295 13 µM | SNB-75 29.1 µM | HT-29 17.9 µM | MOLT-4 2.7 µM | XF498 15.2 µM | OVCAR-4 18.8 µM | ACHN 16.8 µM | LOX IMVI 12.9 µM | OVCAR-5 20.9 µM | RXF 393 15.5 µM | SR 5.11 µM | SNB-78 25.8 µM | DLD-1 14.7 µM | COLO 205 18.8 µM | UACC-257 18.5 µM | HOP-18 16.5 µM | U-251 15.6 µM | 786-0 15.9 µM | HL-60 7.28 µM | SK-OV-3 45.2 µM | KM-20L2 16.1 µM | SF-539 17.9 µM | IGROV-1 24.7 µM | LXFL 529 14.3 µM | OVCAR-8 15 µM | SK-MEL-5 15.4 µM | SN12C 14 µM | EKVX 32.2 µM | M14 17.1 µM | OVCAR-3 15.7 µM | DMS-273 17.9 µM | HCC 2998 16.9 µM | NCI-H23 16.6 µM

CN(C)CC1CC/C(=C\c2ccc(Cl)cc2)C1=O (configuration not stated)
inactive: HOP-92 7.73 µM | SK-MEL-28 3.3 µM | SF-268 7.03 µM | UO-31 16.6 µM | NCI-H226 19.9 µM | NCI-H460 17.4 µM | M19-MEL 3.54 µM | CAKI-1 3.33 µM | SK-MEL-2 12 µM | NCI-H522 3.48 µM | A498 13.5 µM | A549 20.4 µM | SW-620 2.61 µM | DMS-114 7.52 µM | UACC-62 7.5 µM | RXF 631 20.4 µM | TK-10 9.86 µM | HOP-62 22.4 µM | KM12 3.46 µM | SNB-19 15.8 µM | Malme-3M 7.11 µM | HCT-116 3.31 µM | SF-295 17.2 µM | SNB-75 14.8 µM | HT-29 5.71 µM | XF498 7.66 µM | OVCAR-4 15.1 µM | ACHN 12.6 µM | LOX IMVI 2.4 µM | OVCAR-5 18.2 µM | RXF 393 3.16 µM | SNB-78 16.3 µM | DLD-1 3.71 µM | COLO 205 4.19 µM | NCI/ADR-RES 3.24 µM | UACC-257 8.17 µM | HOP-18 18.2 µM | U-251 7 µM | 786-0 2.2 µM | SK-OV-3 15.7 µM | KM-20L2 12.1 µM | SF-539 13.7 µM | IGROV-1 14.6 µM | LXFL 529 1.99 µM | OVCAR-8 3.58 µM | SK-MEL-5 11.9 µM | SN12C 7.67 µM | EKVX 12.7 µM | MCF7 1.87 µM | M14 10.1 µM | OVCAR-3 7.35 µM | DMS-273 3.85 µM | HCC 2998 4.69 µM | NCI-H23 8.13 µM
3.18 µM: HCT-15
active: CCRF-CEM 0.611 µM | RPMI-8226 0.441 µM | K562 0.908 µM | MOLT-4 0.561 µM | HL-60 0.757 µM
